Test results: article PMC12164071, “Lysine targeting covalent inhibitors of malarial kinase PfCLK3” (RSC Medicinal Chemistry, 2025)
Several values for one entry are separate records, joined by “and”; a condition that tells them apart may be missing. Identical values can stand only once. Entries after “also recorded” stand apart in the source; their conditions may differ. Like-named read-outs stand apart in the source and are kept apart here.

Assays:
[1] = test system: 3D7 Plasmodium falciparum parasites; experiment: Ex vivo P. falciparum (3D7) inhibition assay; assay type: cell-based; settings: 3D7, Pf3D7 parasites, 72 hours, errors SD
Method: Compounds 4, 5, 8 and 9 were then assessed against 3D7 Plasmodium falciparum parasites (Fig. 6). […]
P. falciparum (3D7) culture and synchronisation.
P. falciparum cultures were maintained in RPMI-1640 media (Invitrogen) supplemented with 0.2% sodium bicarbonate, 0.5% Albumax II, 2.0 mM L-glutamine (Sigma) and 10 mg/L gentamycin. For continuous culture, the parasites were maintained at 4% haematocrit in human erythrocytes from 0+ blood donors and between 0.5 - 3% parasitaemia in an incubator at 37 °C, 5% carbon dioxide (CO 2), 5% oxygen (O 2) and 90% nitrogen (N 2). To obtain highly synchronous ring stage parasites for assays, cultures were double synchronised using Percoll and Sorbitol synchronisation. First, highly segmented schizonts were enriched by centrifugation on a 70% Percoll (GE Healthcare) cushion gradient. The Schizont pellet was collected and washed twice before fresh erythrocytes were added to a final haematocrit of 4%, and incubated for about 1-2 hours shaking continuously to allow merozoites egress and re-invasion of new erythrocytes. Residual schizonts were then removed by a second Percoll purification followed by treating the ring pellet with sorbitol to generate highly synchronous 1-2 hours old ring-stage parasites.
Ex vivo P. Falciparum (3D7) inhibition assay.
To determine the IC 50 of the molecules in parasites (P. falciparum 3D7) ex vivo, the molecules were diluted 1 in 3 from a starting concentration of 100 μM for 12 dilution points in triplicate. 50 μL of freshly diluted drugs, at twice the required final concentrations were aliquoted into black 96-well plates. To the compound plates, 50 μL of parasites prepared at 8% haematocrit at a parasitaemia (0.3 - 0.5%) were added and mixed by pipetting up and down several times giving a final culture volume of 100 μL at the required compound concentration (top concentration of 100 μM) and 4% haematocrit. To the ‘no compound’ control, growth media was added and uninfected erythrocytes were included on the plate as blank. The outer wells were filled with media to reduce evaporation from the experimental wells and the plates incubated for 72 hours (±2 hours) to allow the parasites sufficient time to re-invade before they are collected and frozen. For cellular washout studies, compound media was exchanged for compound-free media after 6 hours, and the parasites incubated for a […]

[2] = Human cell viability assay (resazurin); settings: HepG2, 48 hours, errors SD, N ≥ 3
Method: Cytotoxicity was assessed in HepG2 cells to complement the selectivity evaluations (Fig. 7). […]
Human cell viability assay.
Mycoplasma tested HepG2 cells were cultured in Dulbecco’s Modified Eagle Medium
(DMEM) with 10% fetal bovine serum, 1% non-essential AA, 1% sodium pyruvate, 1% Pen-
strep and 100ug/mL Normocin. Cultures were incubated at 37 ℃, 5% CO2. Cells were
detached using 0.05% trypsin-EDTA. 500nL of drug compound dilutions, in triplicate, were
added to 384-well, black, clear bottom assay plates using a Mosquito liquid handling
machine. Assay plates, containing compound dilutions, were seeded at 5,000 cells/well and
incubated for 48 hours. 40uM final concentration resazurin, diluted in DPBS, was added to
the assay plates which were then incubated for 4 hours and analysed using a ClariostarTM
plate reader to measure fluorescence Intensity (545-20nm/600-40nm). 3 control compounds
were included on every assay plate, Tamoxifen, Puromycin and TCMDC-135051. Maximum
signal control was obtained from wells with DMSO only and minimum signal control with
Tamoxifen 100uM. These were used to normalise data and give percentage inhibition of
metabolic activity. Experiments were performed N=3 and normalised data was grouped and a
nonlinear regression curve with four parameters was plotted using GraphPad Prism,
generating activity data. […]

[3] = biological target: human (h)CLK2 (Homo sapiens, UniProt P49760); experiment: Selectivity kinase assay against hCLK2; assay type: biochemical; settings: for IC50: errors SD, N ≥ 3
Source text: Given this work aims to target a conserved residue, selectivity must be derived from the reversible ligand rather than the covalent interaction.

[4] = test system: PfCLK3 kinase domain (amino acid residues 334–699); experiment: Intact protein LC-MS for covalent adduct formation; assay type: binding, Plasmodium falciparum; settings: for covalent adduct formation with PfCLK3 kinase domain: pH 7.4, 1:5 protein to compound ratio
Method: All compounds were then evaluated for covalent binding with PfCLK3 kinase domain (amino acid residues 334–699) using intact protein LC-MS (Fig. 3). Compounds were incubated at pH 7.4 in a 1 : 5 protein to compound ratio and analysed for covalent adduct formation using ESI TOF. […] Compounds 8 and 9 yielded a fully modified species at 43 957 Da, which can be attributed to the mass of the apo protein + the mass of the pyridinium product adduct. A minor mass (20–25%) of 44 378 Da was also detected, consistent with a doubly modified PfCLK3 kinase domain. This implies that cross reactivity with non-catalytic lysine residues is possible using the ethynyl benzaldehyde functionality, although a minor product. […]
dialyzing the protein into a final buffer containing 20 mM HEPES pH 7.4, 150 mM NaCl, 1 […]
PfCLK3 kinase domain (residues 334–699 with a C-terminal TEV cleavage sequence and His6-tag) was cloned into pFastBac vector and expressed and purified from Sf21 insect cells.
Cells were infected using P2 BIICs at an MOI of 0.2 and left to express for 72 h. Harvested cells were lysed and centrifuged before purifying using IMAC and SEC in a final buffer containing 20 mM HEPES pH 7.4, 150 mM NaCl, 1 mM TCEP, and 1 mM MgCl2.
Protein Mass Spectrometry
For intact protein mass spectrometry, compounds were incubated with a 5-fold excess of compound in buffer containing 20 mM HEPES pH 7.4, 150 mM NaCl, 1 mM TCEP, and 1 mM MgCl 2. 5 μL of kinase domain (1 mg/mL) was added to 25 μL of buffer before 0.12 μL of compound in a 10 mM DMSO stock was added to start the incubation. Samples were incubated at room temperature for 4 hours before 10 μL alliquots were analysed by LC-MS.
Intact protein LC-MS experiments were performed on a Synapt G2 Q-ToF instrument equipped with electrospray ionisation (Waters Corp., Manchester, UK). LC separation was achieved using an Acquity UPLC equipped with a reverse phase C4 Aeris Widepore 50 × 2.1 mm HPLC column (Phenomenex, CA, USA) and a gradient of 5–95% acetonitrile (0.1% formic acid) over 10 minutes was employed. Data analysis was performed using MassLynx v4.1 and deconvolution was performed using MaxEnt. […]

[5] = N ≥ 3, read-out: pEC50 (3D7) (converted)
[6] = pH 7.4, 1:5 protein to compound, 4 hours room temperature, compound 4 with C-terminal His-tag construct

human (h)CLK2, sequence (P49760 whole entry): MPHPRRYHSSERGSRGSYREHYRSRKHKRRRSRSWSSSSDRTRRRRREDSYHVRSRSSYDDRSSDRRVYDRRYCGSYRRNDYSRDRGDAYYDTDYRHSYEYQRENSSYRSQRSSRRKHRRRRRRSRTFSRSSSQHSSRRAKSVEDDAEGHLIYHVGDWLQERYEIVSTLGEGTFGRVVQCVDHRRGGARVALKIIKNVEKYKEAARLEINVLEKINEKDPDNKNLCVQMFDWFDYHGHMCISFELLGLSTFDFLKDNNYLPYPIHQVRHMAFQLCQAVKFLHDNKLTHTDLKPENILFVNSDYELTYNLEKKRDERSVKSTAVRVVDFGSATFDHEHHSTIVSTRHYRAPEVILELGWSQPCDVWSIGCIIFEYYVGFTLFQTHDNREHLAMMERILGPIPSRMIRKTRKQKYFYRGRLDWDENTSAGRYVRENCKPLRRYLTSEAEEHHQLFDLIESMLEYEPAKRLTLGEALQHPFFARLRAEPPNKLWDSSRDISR

| Compound | EC50 ([1]; N ≥ 3, read-out: EC50 (3D7)) [µM] | EC50 [1, 5] [µM] | CC50 at 48 h ([2]; CC50 (HepG2)) [µM] | CC50 at 48 h ([2]; pCC50 (HepG2)) [µM] | IC50 ([3]; read-out: IC50 (hCLK2)) [µM] | partial covalent bond formation, modification ([4]; imine adduct) | covalent adduct formation with PfCLK3 kinase domain [4] | Relative Ratio, assignment apo [4, 6] | Relative Ratio, assignment holo (singly modified) [4, 6] | IC50 ([3]; read-out: pIC50 (hCLK2) (converted)) [µM] | fold more potent against hCLK2 than parent S1 ([3]; relative to S1) [fold] | doubly modified PfCLK3 kinase domain, minor mass abundance ([4]; 44 378 Da species) | Relative Ratio, assignment holo (doubly modified) ([4]; pH 7.4, 1:5 protein to compound, 4 hours room temperature) |
| --- | --- | --- | --- | --- | --- | --- | --- | --- | --- | --- | --- | --- | --- |
| CCN(CC)Cc1ccc(OC)c(-c2cc3c(-c4ccc(O)c(C=O)c4)ccnc3[nH]2)c1 [Compound 4] | 6.35 ± 2.31 | 6.31 | 5.25 ± 2.47 | 5.25 | 0.104 ± 0.037 | 32–60% | showed covalent adduct formation; also recorded: formed a covalent adduct with PfCLK3 | 40 | 60 |  |  |  |  |
| C#Cc1ccc(-c2c[nH]c3ncc(-c4cc(CN(CC)CC)ccc4OC)cc23)cc1C=O [Compound 9] | 4.35 ± 0.5 | 4.37 | 7.94 ± 1.29 | 7.94 |  |  | showed covalent adduct formation; also recorded: formed a covalent adduct with PfCLK3 |  | 80 | 0.0166 | 31 | 20–25% and ~20% | 20 |
